# According to PMC12808645 (Nature Communications, 2025):
# pEC50, pKi: −log10 of the molar value.
# Legend:
# Nan-Iav = type: cell-based, Halyomorpha halys
# NanY172F-Iav [1] = type: binding, Halyomorpha halys
# NanY177F-Iav [2] = type: binding, Halyomorpha halys
# NanY177A-Iav [3] = type: binding, Halyomorpha halys
# NanY172A-Iav [4] = type: binding, Halyomorpha halys
# NanY177A-Iav [5] = experiment: Whole-cell electrophysiology, NanY177A-Iav; type: cell-based, Halyomorpha halys
# NanY177A-Iav [6] = type: binding, Halyomorpha halys; remark: listed apart in the source
# NanY172A-Iav [7] = type: binding, Halyomorpha halys; remark: listed apart in the source
# NanY177F-Iav [8] = type: binding, Halyomorpha halys; remark: listed apart in the source
# NanY172F-Iav [9] = type: binding, Halyomorpha halys; remark: listed apart in the source
smiles,measurement,setting,value
[Ca+2] [Ca^2+],% inhibition of inward current,Nan-Iav,~ 50%
same,% inhibition of outward current,Nan-Iav,~ 20%
"NC(=O)c1cccnc1 [NAM, nicotinamide]",increase of Ki for NAM relative to WT,NanY172F-Iav [1],~ 10 fold
same,weaker NAM affinity than WT,NanY177F-Iav [2],~ 10 fold
same,lowering of NAM binding affinity relative to WT,NanY177A-Iav [3],> 100 fold
same,pKi,"NanY177A-Iav [3]; read-out: Ki NAM, competition with [3H]-AP, affinities exceeding 10 mM could not be accurately determined",< 2.00
same,effect on whole-cell current,"Nan-Iav; 1 mM NAM, ±60 mV",robustly stimulated
same,desensitization and reversibility of evoked currents,"Nan-Iav; prolonged or repeated application, washout",non-desensitizing upon prolonged or repeated application and are reversible upon washout
same,pEC50,Nan-Iav; read-out: apparent EC50,~4.00
same,raising of Ki for NAM relative to WT,NanY172A-Iav [4],two orders of magnitude
same,NAM-induced channel activity,NanY177A-Iav [5],abolishes
C[C@]1(COC(=O)C2CC2)[C@@H]2C[C@H](O)[C@@]3(C)Oc4cc(-c5cccnc5)oc(=O)c4[C@H](O)[C@@H]3[C@@]2(C)CC[C@@H]1OC(=O)C1CC1 [[^3H]-AP],greater [3H]-AP Kd than WT,NanY177A-Iav [6],~ 200 fold
same,increase in [3H]-AP Kd relative to WT,NanY172A-Iav [7],~ 100 fold
same,[3H]-AP Kd compared with WT,NanY177F-Iav [8],similar
same,difference in [3H]-AP Kd relative to WT,NanY172F-Iav [9],3 fold
N.N.N.N.N.N.N.N.N.N.N.N.N.N.[Cl-].[Cl-].[Cl-].[Cl-].[Cl-].[Cl-].[O-2].[O-2].[Ru+3].[Ru+3].[Ru+4] [ruthenium red],effect on AP-elicited current,Nan-Iav; pore blocker,inhibited
